# Where two headings read alike, the source gives them in different places.
# Tested on: U87MG cells
# Test: 2D cytotoxicity assay, SRB end point, dark vs green light
# Type: cell-based, human
# Details: normoxia (21% O2); for EC50: SRB at 96 h
# Description: To test the in vitro phototoxicity of the three complexes toward 2D monolayer U87MG cells, a cell viability assay was undertaken as follows: the cells were seeded at t = 0, treated at t = 24 h, irradiated with green light (520 nm, 13.1 J cm^–2) at t = 48 h without refreshing the medium (drug-to-light interval = 24 h), further incubated in the dark for 48 h, and counted at t = 96 h with a sulforhodamine B (SRB) cell quantification end point assay.[45] Half-maximal effective concentrations (EC50 in μM), compared to untreated control, and photoindex (PI) values, defined as EC50,dark/ EC50,light, were calculated to characterize the toxicity and light activation of each Ru-peptide conjugate. […] However, a much stronger discrepancy appeared in the 2D toxicity data in hypoxic conditions (Table 2, Figure S22b). The phototherapeutic properties of Ru-p(HH) in the green light group were the poorest, leading to a PI of only 1.3. […] Ru-p(MH) stood somewhere between these values with a PI of 1.9 under hypoxia. […] The loss of activity of Ru-p(HH) under hypoxia is consistent with the hypothesis of a PDT pathway, while Ru-p(MM) keeping appreciable phototoxicity under hypoxia better fits the hypothesis of a PACT cell-killing mechanism.
# U87MG cells (6000) were seeded in 96-well plates (Sarstedt, 83.3924), and each well contained 100 μL of Opti-MEM (Gibco complete medium 11058-021, supplemented with 2.5% v/v fetal calf serum (FCS), 0.2% v/v penicillin/streptomycin (P/S), and 1% v/v glutamine). They were then placed either in a normoxic (21% O2) or hypoxic (1.0% O2) incubator; 24 h later, different concentrations of Ru-p(HH), Ru-p(MH), or Ru-p(MM) dissolved in Opti-MEM (100 μL) were added to the wells in triplicate. For each complex, one dark and one light plate were involved. Each plate was further incubated in the dark for 24 h (DLI). After that, one plate was irradiated with green light (520 nm) for 20 min at 37 °C for normoxia (dose = 13.1 J cm^–2) or 30 min for hypoxia (dose = 13.0 J cm^–2), while the other plate was kept in the dark. The cells were further incubated for another 2 days in normoxic or hypoxic conditions, respectively. Finally, 100 μL of cold trichloroacetic acid (10% w/v) was added to each well to fix the cells, and all plates were then transferred to a 4 °C refrigerator for 48 h before an SRB cell quantification end point assay was performed.[45] All experiments were conducted in biologically independent triplicate.
# Hypoxic cell models in vitro: all cells were incubated and passaged in a dark hypoxic incubator (1% O2) for at least 2 weeks before all hypoxia studies. Adding chemicals to the cells had to be performed in air; however, the cell-growing medium was kept in the hypoxia incubator for at least 2 days before the addition to hypoxic cells, and all hypoxic light irradiations were performed inside the hypoxic incubator set at 1.0% O2.
substance,measurement,setting,value
[Ru(Ph2phen)2(bpy)]Cl2,"PI, photoindex EC50,dark/EC50,light",,74.4
same,EC50,"520 nm, 10.9 mW cm–2, 13.1 J cm–2, 20 min, DLI 24 h, n = 3, read-out: EC50, green light",0.18 µM
same,EC50,"light dose 0, 24 h treatment, no wash, n = 3, read-out: EC50, dark",13.4 µM
